Laboratory results as given in patent US20250051347A1, “BIFUNCTIONAL CHIMERIC HETEROCYCLIC COMPOUND AND USE THEREOF AS ANDROGEN RECEPTOR DEGRADER” (Hinova Pharmaceuticals, Inc., priority 2021, published 2025).
Like-named read-outs stand apart in the source and are kept apart here.

How the values were obtained:
[1] = tested on: 22RV1 cells
[2] = molecular target: T1, androgen receptor (AR) splicing variant AR-v7 (Homo sapiens, UniProt P10275); assay: Degradation activity on androgen receptor splicing variant AR-v7 in 22RV1 cells (ELISA); assay type: cell-based; conditions: AR-v7 degradation in 22RV1 cells, 48 h, class symbols
T1 construct: The degradation activity of compounds on AR-v7 in 22RV1 cells; host or cells: 22RV1 cells
T1 sequence (P10275 1-644 isoform P10275-3): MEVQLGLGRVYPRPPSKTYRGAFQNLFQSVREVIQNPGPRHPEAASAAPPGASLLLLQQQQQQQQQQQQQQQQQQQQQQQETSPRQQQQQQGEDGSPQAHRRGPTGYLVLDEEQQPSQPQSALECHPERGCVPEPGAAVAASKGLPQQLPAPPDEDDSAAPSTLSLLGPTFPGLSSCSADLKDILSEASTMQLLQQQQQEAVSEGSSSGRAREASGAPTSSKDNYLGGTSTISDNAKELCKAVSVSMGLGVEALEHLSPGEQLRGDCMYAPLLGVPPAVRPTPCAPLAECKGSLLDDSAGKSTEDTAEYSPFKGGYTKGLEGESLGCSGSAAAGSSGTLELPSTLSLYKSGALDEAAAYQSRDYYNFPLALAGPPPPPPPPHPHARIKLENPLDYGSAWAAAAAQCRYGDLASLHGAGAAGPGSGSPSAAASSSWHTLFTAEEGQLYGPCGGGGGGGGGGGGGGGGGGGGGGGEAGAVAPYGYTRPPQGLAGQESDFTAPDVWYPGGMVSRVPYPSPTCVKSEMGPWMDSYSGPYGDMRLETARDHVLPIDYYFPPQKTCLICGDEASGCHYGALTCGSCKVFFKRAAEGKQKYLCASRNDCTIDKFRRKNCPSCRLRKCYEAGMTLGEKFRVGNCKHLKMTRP

[3] = Homo sapiens, 22Rv1, 144 h, read-out: 22RV1 IC50 (nM), 22RV1 cells, 6 days culture, CCK-8, OD 450 nm
[4] = read-out: 22RV1 IC50, 22RV1 cells, 6 days culture, CCK-8, OD 450 nm

SMILES	IC50 [1, 3] [nM]	DC50 [2] [nM]	IC50 [1, 4] [nM]
CC(C)(c1ccc(OCc2cccc(C(O)C3CC3)n2)cc1)c1ccc(O[C@H]2C[C@H](Nc3ccc4c(c3)C(=O)N(C3CCC(=O)NC3=O)C4=O)C2)cc1 (stereo partly drawn) [Example 116, 5-(((trans)-3-(4-(2-(4-((6-(cyclopropyl(hydroxyl)methyl)pyridin-2-yl)methoxy)phenyl)propan-2-yl)phenoxy)cyclobutyl)amino)-2-(2,6-dioxopiperidin-3-yl)isoindolin-1,3-dione]	17	< 10	–
CC(O)c1ccc(Oc2ccc(C(C)(C)c3ccc(O[C@H]4C[C@H](Nc5ccc6c(c5)C(=O)N(C5CCC(=O)NC5=O)C6=O)C4)cc3)cc2)cn1 (stereo partly drawn) [Example 123]	7	< 10	–
CC(=O)c1ccc(Oc2ccc(C(C)(C)c3ccc(O[C@H]4C[C@H](Nc5ccc6c(c5)C(=O)N(C5CCC(=O)NC5=O)C6=O)C4)cc3)cc2)cn1 (stereo partly drawn) [Example 124]	8	< 10	–
CC(=O)c1ncc(Oc2ccc(C(C)(C)c3ccc(O[C@H]4C[C@@H](Nc5ccc6c(c5)C(=O)N(C5CCC(=O)NC5=O)C6=O)C4)cc3)cc2)cn1 (stereo partly drawn) [Example 128, 5-(((cis)-3-(4-(2-(4-((2-acetylpyrimidin-5-yl)oxy)phenyl)propan-2-yl)phenoxy)cyclobutyl)amino)-2-(2,6-dioxopiperidin-3-yl)isoindolin-1,3-dione]	7	11 to 100	–
CC(=O)c1cnc(Oc2ccc(C(C)(C)c3ccc(O[C@H]4C[C@@H](Nc5ccc6c(c5)C(=O)N(C5CCC(=O)NC5=O)C6=O)C4)cc3)cc2)cn1 (stereo partly drawn) [Example 130]	13	< 10	–
CCC(CC)(c1ccc(Oc2cnc(C(C)O)nc2)cc1)c1ccc(O[C@H]2C[C@H](Nc3ccc4c(c3)C(=O)N(C3CCC(=O)NC3=O)C4=O)C2)cc1 (stereo partly drawn) [Example 131]	4	< 10	–
CCC(CC)(c1ccc(Oc2cnc(C(C)=O)nc2)cc1)c1ccc(O[C@H]2C[C@H](Nc3ccc4c(c3)C(=O)N(C3CCC(=O)NC3=O)C4=O)C2)cc1 (stereo partly drawn) [Example 132]	5	< 10	–
CCC(CC)(c1ccc(Oc2cnc(C(C)O)nc2)cc1)c1ccc(O[C@H]2C[C@@H](Nc3ccc4c(c3)C(=O)N(C3CCC(=O)NC3=O)C4=O)C2)cc1 (stereo partly drawn) [Example 133]	–	< 10	9
CC(O)c1ncc(Oc2ccc(C3(c4ccc(O[C@H]5C[C@H](Nc6ccc7c(c6)C(=O)N(C6CCC(=O)NC6=O)C7=O)C5)cc4)CCCC3)cc2)cn1 (stereo partly drawn) [Example 134]	< 1	< 10	–
CC(=O)c1ncc(Oc2ccc(C3(c4ccc(O[C@H]5C[C@H](Nc6ccc7c(c6)C(=O)N(C6CCC(=O)NC6=O)C7=O)C5)cc4)CCCC3)cc2)cn1 (stereo partly drawn) [Example 135]	2	< 10	–
CN1CCN(C(=O)c2noc(COc3ccc(C(C)(C)c4ccc(OCCCNc5ccc6c(c5)C(=O)N(C5CCC(=O)NC5=O)C6=O)cc4)cc3)n2)CC1 (stereo not drawn) [Example 141]	85	11 to 100	–
CC(C)(c1ccc(OCCCNc2ccc3c(c2)C(=O)N(C2CCC(=O)NC2=O)C3=O)cc1)c1ccc(OCc2nc(C(=O)N3CCOCC3)no2)cc1 (stereo not drawn) [Example 142, 2-(2,6-dioxopiperidin-3-yl)-5-((3-(4-(2-(4-((3-(morpholine-4-carbonyl)-1,2,4-oxadiazol-5-yl)methoxy)phenyl)propan-2-yl)phenoxy)propyl)amino)isoindolin-1,3-dione]	61	11 to 100	–
CC(C)(c1ccc(OCCCNc2ccc3c(c2)C(=O)N(C2CCC(=O)NC2=O)C3=O)cc1)c1ccc(OCc2nc(C(N)=O)no2)cc1 (stereo not drawn) [Example 143, 5-((4-(2-(4-(3-((2-(2,6-dioxopiperidin-3-yl)-1,3-dioxoisoindolin-5-yl)amino)propoxy)phenyl)propan-2-yl)phenoxy)methyl)-1,2,4-oxadiazol-3-carbonylamine]	160	11 to 100	–
CC(C)(c1ccc(Oc2nccc(N3CC4(COC4)C3)n2)cc1)c1ccc(O[C@H]2C[C@@H](Nc3ccc4c(c3)C(=O)N(C3CCC(=O)NC3=O)C4=O)C2)cc1 (stereo partly drawn) [Example 155]	39	< 10	–
CC(C)(c1ccc(Oc2nccc(N3CC4(COC4)C3)n2)cc1)c1ccc(O[C@H]2C[C@H](Nc3ccc4c(c3)C(=O)N(C3CCC(=O)NC3=O)C4=O)C2)cc1 (stereo partly drawn) [Example 156]	10	< 10	–
CC(C)(c1ccc(Oc2ncnc(N3CC4(COC4)C3)n2)cc1)c1ccc(O[C@H]2C[C@H](Nc3ccc4c(c3)C(=O)N(C3CCC(=O)NC3=O)C4=O)C2)cc1 (stereo partly drawn) [Example 160]	8	< 10	–
CC(C)(O)c1ccnc(Oc2ccc(C(C)(C)c3ccc(O[C@H]4C[C@H](Nc5ccc6c(c5)C(=O)N(C5CCC(=O)NC5=O)C6=O)C4)cc3)cc2)n1 (stereo partly drawn) [Example 161]	10	< 10	–
CC(C)(O)c1cncc(Oc2ccc(C(C)(C)c3ccc(O[C@H]4C[C@H](Nc5ccc6c(c5)C(=O)N(C5CCC(=O)NC5=O)C6=O)C4)cc3)cc2)n1 (stereo partly drawn) [Example 162]	10	< 10	–

More lines, now with the values ahead:

IC50 [1, 3] [nM]	DC50 [2] [nM]	IC50 [1, 4] [nM]	SMILES
18	11 to 100	–	CC(C)(c1ccc(Oc2cc(-n3nccn3)ccn2)cc1)c1ccc(O[C@H]2C[C@H](Nc3ccc4c(c3)C(=O)N(C3CCC(=O)NC3=O)C4=O)C2)cc1 (stereo partly drawn) [Example 168]
10	< 10	–	CC(C)(c1ccc(Oc2cc(-n3ccnn3)ccn2)cc1)c1ccc(O[C@H]2C[C@H](Nc3ccc4c(c3)C(=O)N(C3CCC(=O)NC3=O)C4=O)C2)cc1 (stereo partly drawn) [Example 169]
9	< 10	–	CC(C)(c1ccc(Oc2nccc(-n3nccn3)n2)cc1)c1ccc(O[C@H]2C[C@H](Nc3ccc4c(c3)C(=O)N(C3CCC(=O)NC3=O)C4=O)C2)cc1 (stereo partly drawn) [Example 170, 5-(((1r,3r)-3-(4-(2-(4-((4-(2H-1,2,3-triazol-2-yl)pyrimidin-2-yl)oxy)phenyl)propan-2-yl)phenoxy)cyclobutyl)amino)-2-(2,6-dioxopiperidin-3-yl)isoindol-1,3-dione]
19	< 10	–	Cc1nnc(-c2cc(Oc3ccc(C(C)(C)c4ccc(O[C@H]5C[C@H](Nc6ccc7c(c6)C(=O)N(C6CCC(=O)NC6=O)C7=O)C5)cc4)cc3)ccn2)o1 (stereo partly drawn) [Example 172, 2-(2,6-dioxopyridin-3-yl)-5-(((1r,3r)-3-(4-(2-(4-((2-(5-methyl-1,3,4-oxadiazol-2-yl)pyridin-4-yl)oxy)phenyl)propan-2-yl)phenoxy)cyclobutyl)amino) isoindolin-1,3-dione]
13	11 to 100	–	Cc1nc(-c2ccnc(Oc3ccc(C(C)(C)c4ccc(O[C@H]5C[C@@H](Nc6ccc7c(c6)C(=O)N(C6CCC(=O)NC6=O)C7=O)C5)cc4)cc3)n2)no1 (stereo partly drawn) [Example 173, 2-(2,6-dioxopiperidin-3-yl)-5-(((1s,3s)-3-(4-(2-(4-((4-(5-methyl-1,2,4-oxadiazol-3-yl)pyrimidin-2-yl)oxy)phenyl)propan-2-yl)phenoxy)cyclobutyl)amino)isoindolin-1,3-dione]
2	< 10	–	CCC(CC)(c1ccc(Oc2ccc(C(C)=O)nn2)cc1)c1ccc(O[C@H]2C[C@H](Nc3ccc4c(c3)C(=O)N(C3CCC(=O)NC3=O)C4=O)C2)cc1 (stereo partly drawn) [Example 176, 5-(((1r,3r)-3-(4-(3-(4-((6-acetylpyridazine-3-yl)oxy)phenyl)pentan-3-yl)phenoxy)cyclobutyl)amino)-2-(2,6-dioxopiperidin-3-yl)isoindolin-1,3-dione]
–	< 10	2	CC(=O)c1cnc(Oc2ccc(C3(c4ccc(OC5CC(Nc6ccc7c(c6)C(=O)N(C6CCC(=O)NC6=O)C7=O)C5)cc4)CCCC3)cc2)cn1 (stereo not drawn) [Example 177, 5-(((1r,3r)-3-(4-(1-(4-((5-acetylpyrazin-2-yl)oxy)phenyl)cyclopentyl)phenoxy)cyclobutyl)amino)-2-(2,6-dioxopiperidin-3-yl)isoindolin-1,3-dione]
–	< 10	5	C[C@@H](O)c1cnc(Oc2ccc(C3(c4ccc(OC5CC(Nc6ccc7c(c6)C(=O)N(C6CCC(=O)NC6=O)C7=O)C5)cc4)CCCC3)cc2)cn1 (stereo partly drawn) [Example 178, 2-(2,6-dioxopiperidin-3-yl)-5-(((1r,3r)-3-(4-(1-(4-((5-(1-hydroxylethyl)pyrazin-2-yl)oxy)phenyl)cyclopentyl)phenoxy)cyclobutyl)amino) isoindolin-1,3-dione]
140	1000 to 5000	–	CN(C)C(=O)c1noc(COc2ccc(C(C)(C)c3ccc(OCCCNc4cccc5c4C(=O)N(C4CCC(=O)NC4=O)C5=O)cc3)cc2)n1 (stereo not drawn) [Example 181, 5-((4-(2-(4-(3-((2-(2,6-dioxopiperidin-3-yl)-1,3-dioxoisoindolin-4-yl)amino)propoxy)phenyl)propan-2-yl)phenoxy)methyl)-N,N-dimethyl-1,2,4-oxadiazol-3-carbonylamine]
